Holding throughout (type): cell-based
Test [1] deals with Trypanosoma brucei Lister 427 VSG221 with APOL1 G1 recombinant protein. Put plainly: APOL1 G1 trypanosome cell rescue assay (Example B5). As to conditions: Trypanosoma brucei, 20 h, read-out: APOL1 G1 Trypanosome Rescue EC50, Trypanosoma brucei Lister 427 VSG221 with APOL1 G1 recombinant protein, 20 hours, CellTiter-Glo; geometric mean of at least 2 assay runs; † = single assay run. On the procedure: (§1) APOL1 G0/G1/G2 viability assay for measurement of cytotoxicity reversal by compound in trypanosomes (APOL1 G0/G1/G2 trypanosome cell rescue assay).
(§2) APOL1 protein expression and purification. The mature from of APOL1 proteins, residues 28-398, were expressed from a pET28a vector with an N-terminal His-tag and TEV cleavage site. Proteins were expressed in Escherichia coli BL21-CodonPlus (DE3)-RIPL cells. Liter cultures of terrific broth were grown at 37° C. until an OD600 of ˜0.8 was reached and then induced with isopropyl β-D-1-thiogalactopyranoside (IPTG; final concentration of 500 μM). Afterwards, cultures were grown for 3 hours at 37° C. For protein purification, cell pellets were resuspended in lysis buffer (50 mM Tris, pH 8.5, 5 mM EDTA, 0.5 mM DTT, 0.5 mM PMSF) supplemented with a cocktail of protease inhibitors. Cells were lysed by sonication, centrifuged, and the resulting pellet was collected. The homogenized pellet was resuspended in wash buffer (50 mM Tris, pH 8.5, 0.5 M NaCl, 5 mM EDTA, 0.5 mM DTT, 0.5 mM PMSF, protease inhibitor cocktail) and collected by centrifugation. Inclusion body dissolution was then conducted as previously reported (PNAS 112(9) (2015) 2894-2899; www.pnas.org/cgi/doi/10.1073/pnas.1421953112; herein incorporated by reference in its entirety). The solubilized APOL1 protein was applied to a nickel column (HisTrap, GE Life Sciences) preequilibrated in buffer A (50 mM Tris, pH 8.5, 0.15 M NaCl, 1% zwittergent 3-14, protease inhibitor cocktail). The resin was washed with buffer B (50 mM Tris, pH 8.5, 0.15 M NaCl, 0.1% DDM) and TEV cleavage was conducted on column overnight. Afterwards, the column was washed with buffer B, followed by His-washing buffer (50 mM Tris, pH 8.5, 0.15 M NaCl, 0.1% DDM, 10 mM imidazole). The protein was then removed from the resin using His-elution buffer (50 mM Tris, pH 8.5, 0.15 M NaCl, 0.1% DDM, 250 mM imidazole). The sample was further purified by size exclusion chromatography using a Superdex 200 Increase column (GE Life Sciences) in 50 mM Tris, pH 8.5, 0.15 M NaCl, and 0.1% DDM buffer. All APOL1 proteins (G0, G1, and G2) were generated at Viva Biotech (Shanghai) Ltd.
(§3) Modified HMI-9 media preparation (https://tryps.rockefeller.edu/trypsru2_culture_media_preparation.html; herein incorporated by reference in its entirety). Trypanosomes were cultured in modified HMI-9 media consisting of IMDM (ThermoFisher, 12440053), 10% heat-inactivated FBS (Gibco, 10082-147), 10% Serum Plus (Sigma-Aldrich, 14008C), 1×HMI-9 supplement stock, and 1% hypoxanthine stock. The 10×HMI-9 supplement stock was made by dissolving 280 mg bathocuproine disulfonic acid (Sigma-Aldrich, 146625), 1820 mg cysteine (add after bathocuproine) (Sigma-Aldrich, 30089), 1100 mg pyruvic acid (Sigma-Aldrich, 107360), 100 mg uracil (Sigma-Aldrich, U0750), 100 mg cytosine (Sigma-Aldrich, C3506) and 140 μL 2-mercaptoethanol (Sigma-Aldrich, M3148) in 1000 mL of water. The resulting solution was aliquoted and stored at −20° C. The hypoxanthine stock was made by dissolving 4 g of NaOH into 1000 mL of water. Afterwards, 13.6 g hypoxanthine (Sigma-Aldrich, H9377) was added to this mixture. The resulting solution was aliquoted and stored at −20° C.
(§4) Assay Setup. Trypanosoma brucei Lister 427 VSG221 (ATCC, PRA-382) cells were cultured in modified HMI-9 media. All experiments were performed in 384-well, white, solid bottom, tissue culture treated plates (Greiner, 781080). Assay ready plates were generated with duplicate 11-point compound dilution series that consisted of 2-fold stepwise dilutions (0.4% DMSO final). To each well, was added 20 μL of 2 μg/mL of APOL1 G0, G1, or G2 recombinant protein in modified HMI-9 media using a MultiDrop Combi (final APOL1 protein concentration=[…]). Trypanosomes were counted using a hemacytometer and diluted in modified HMI-9 media to a concentration of 1.25×10^4 cell/mL. […]
(In ATP-based viability assays light output follows the ATP content of the culture.)

Test [2] relates to HEK293 clonal cell line overexpressing APOL1 G1. Put plainly: APOL1 G1 HEK293 cell rescue assay (Example B3). As to conditions: Homo sapiens, HEK293, HEK293 clonal line overexpressing APOL1 G1; geometric mean of at least 2 runs; † = single run; ¥ = concentration at 50% rescue estimated (no sigmoidal curve). The method in brief:
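HEK293 clonal line overexpressing APOL1 G1; EC50 is half-maximal reversal of APOL1-induced cell death. Values are the geometric mean of ≥2 runs on separate days, each run the average of duplicate wells. Where no sigmoidal curve could be fitted, the concentration giving 50% rescue was estimated.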

Test [3] relates to HEK293 cells overexpressing APOL1 G2. Put plainly: APOL1 G2 HEK293 cell rescue assay (reversal of cell death caused by overexpression of APOL1). To be noted: Homo sapiens, HEK293, HEK293 overexpressing APOL1 G2; geometric mean of at least 2 assay runs; † = single assay run. The method in brief:
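EC50 is the half-maximal effective concentration for reversing cell death driven by APOL1 G2 overexpression in HEK293 cells. Reported as geometric mean of at least 2 runs on separate days, each run averaging duplicate wells per plate; some values from a single run.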

The test system of test [4] is Trypanosoma brucei Lister 427 VSG221 with APOL1 G2 recombinant protein. Put plainly: APOL1 G2 trypanosome cell rescue assay (Example B5). To be noted: Trypanosoma brucei, 20 h, read-out: APOL1 G2 Trypanosome Rescue EC50, Trypanosoma brucei Lister 427 VSG221 with APOL1 G2 recombinant protein, 20 hours, CellTiter-Glo; geometric mean of at least 2 assay runs; † = single assay run. On the procedure:
as §1, §2, §3, §4

Test [5] deals with Trypanosoma brucei Lister 427 VSG221 with APOL1 G0 recombinant protein. The test is described as follows: APOL1 G0 trypanosome cell rescue assay (Example B5). As to conditions: Trypanosoma brucei, 20 h, read-out: APOL1 G0 Trypanosome Rescue EC50, Trypanosoma brucei Lister 427 VSG221 with APOL1 G0 recombinant protein, 20 hours, CellTiter-Glo; geometric mean of at least 2 assay runs; † = single assay run. On the procedure:
as §1, §2, §3, §4

We go through ten molecules from US12344610B2, “APOL1 inhibitors and methods of use” (Maze Therapeutics, Inc., priority 2022, dated 2025).

By EC50 is commonly meant the midpoint of the concentration-response curve. For `CC1(O)CN(c2ncnc3cc(OCCN4CCC5(CC4)C(=O)Nc4ccc(Cl)cc45)cnc23)C1` [Compound 364, 5-chloro-1′-(2-{[4-(3-hydroxy-3-methylazetidin-1-yl)pyrido[3,2-d]pyrimidin-7-yl]oxy}ethyl)-1,2-dihydrospiro[indole-3,4′-piperidin]-2-one], the half-maximal effective concentration (EC50) in test [1] was 203 nM; in test [2] it was 239 nM; in test [3], 112 nM; in test [4], 92.3 nM; in test [5], 155 nM.

In the case of `O=C1Nc2ccc(Cl)cc2C12CCN(CCOc1cnc3c(N4CC(O)C4)ncnc3c1)CC2` [Compound 366, 5-chloro-1′-(2-{[4-(3-hydroxyazetidin-1-yl)pyrido[3,2-d]pyrimidin-7-yl]oxy}ethyl)-1,2-dihydrospiro[indole-3,4′-piperidin]-2-one], the EC50 was 87.3 nM in test [1]; 136 nM in test [2]; 80 nM in test [3]; 32.4 nM in test [4]; 66.4 nM in test [5].

In the case of `C[C@]1(O)C[C@@H](n2cnc3cc(OCCN4CCC5(CC4)C(=O)Nc4ccc(Cl)cc45)cnc32)C1` [Compound 367, 5-chloro-1′-[2-({3-[(cis)-3-hydroxy-3-methylcyclobutyl]-3H-imidazo[4,5-b]pyridin-6-yl}oxy)ethyl]-1,2-dihydrospiro[indole-3,4′-piperidin]-2-one], the half-maximal effective concentration (EC50) in test [1] was 323 nM; in test [2] it was 145 nM; in test [3], 87.7 nM; in test [4], 106 nM; in test [5], 231 nM.

Turning to `C[C@]1(O)C[C@@H](N2C(=O)CCc3cc(OCCN4CCC5(CC4)C(=O)Nc4ccc(C#N)cc45)cnc32)C1` [Compound 404, 2-oxo-1′-[2-({7-oxo-8-[(cis)-3-hydroxy-3-methylcyclobutyl]-5,6,7,8-tetrahydro-1,8-naphthyridin-3-yl}oxy)ethyl]-1,2-dihydrospiro[indole-3,4′-piperidine]-5-carbonitrile], the 50% effective concentration (EC50) in test [1] was 554 nM; in test [2], 247 nM; in test [3], 129 nM; in test [4] it was 210 nM; in test [5], 425 nM.

With `CC1(O)CN(c2ncc(OCCN3CCC4(CC3)C(=O)Nc3ccc(Cl)cc34)cc2C(F)(F)F)C1` [Compound 405, 5-chloro-1′-(2-{[6-(3-hydroxy-3-methylazetidin-1-yl)-5-(trifluoromethyl)pyridin-3-yl]oxy}ethyl)-1,2-dihydrospiro[indole-3,4′-piperidin]-2-one], the EC50 is 21.6 nM in test [1]; 19.2 nM in test [2]; 9.59 nM in test [3]; 8.06 nM in test [4]; 20 nM in test [5].

In the case of `C[C@]1(O)C[C@@H](n2c(=O)ccc3cc(OCCN4CCC5(CC4)C(=O)Nc4ccc(C#N)cc45)cnc32)C1` [Compound 406, 2-oxo-1′-[2-({7-oxo-8-[(cis)-3-hydroxy-3-methylcyclobutyl]-7,8-dihydro-1,8-naphthyridin-3-yl}oxy)ethyl]-1,2-dihydrospiro[indole-3,4′-piperidine]-5-carbonitrile], the EC50 in test [1] was 128 nM; in test [2], 109 nM; in test [3], 58.3 nM; in test [4] it was 51.1 nM; in test [5], 107 nM.

For `CC1(O)CC(n2ncc3cc(OCCN4CCC5(CC4)C(=O)Nc4ccc(Cl)cc45)cnc32)C1` (centres unmarked) [Compound 407, 5-chloro-1′-(2-{[1-(3-hydroxy-3-methylcyclobutyl)-1H-pyrazolo[3,4-b]pyridin-5-yl]oxy}ethyl)-1,2-dihydrospiro[indole-3,4′-piperidin]-2-one], the 50% effective concentration (EC50) in test [1] is 99.7 nM; in test [2] it was 46.3 nM; in test [3], 24.1 nM; in test [4], 33 nM; in test [5], 72.4 nM.

Regarding `CC1(C)OCC(c2ncc(OCCN3CCC4(CC3)C(=O)Nc3ccc(Cl)cc34)cn2)O1` (centres unmarked) [Compound 441, 5-chloro-1′-(2-{[2-(2,2-dimethyl-1,3-dioxolan-4-yl)pyrimidin-5-yl]oxy}ethyl)-1,2-dihydrospiro[indole-3,4′-piperidin]-2-one], the EC50 in test [1] was 215 nM; in test [2], 96.1 nM; in test [3] it was 57.4 nM; in test [4], 78.3 nM; in test [5], 144 nM.

As to `C[C@]1(O)C[C@@H](c2nc3cc(OCCN4CCC5(CC4)C(=O)Nc4ccc(Cl)cc45)cc(C(F)(F)F)c3[nH]2)C1` [Compound 466, 5-chloro-1′-[2-({2-[(cis)-3-hydroxy-3-methylcyclobutyl]-7-(trifluoromethyl)-1H-1,3-benzodiazol-5-yl}oxy)ethyl]-1,2-dihydrospiro[indole-3,4′-piperidin]-2-one], the concentration for a half-maximal effect (EC50) in test [1] was 30.6 nM; in test [2], 8.71 nM; in test [3], 4.26 nM; in test [4] it was 11.9 nM; in test [5] it was 19.4 nM.

For `C[C@]1(O)C[C@@H](n2c(=O)n(CO)c3cc(OCCN4CCC5(CC4)C(=O)Nc4ccc(Cl)cc45)cc(C(F)(F)F)c32)C1` [Compound 467, 5-chloro-1′-(2-{[3-(hydroxymethyl)-2-oxo-1-[(cis)-3-hydroxy-3-methylcyclobutyl]-7-(trifluoromethyl)-2,3-dihydro-1H-1,3-benzodiazol-5-yl]oxy}ethyl)-1,2-dihydrospiro[indole-3,4′-piperidin]-2-one], the 50% effective concentration (EC50) in test [1] is 6.03 nM; in test [2], 14.3 nM; in test [3], 4.74 nM; in test [4], 2.24 nM; in test [5] it was 3.74 nM.
